Experiments:
Assay in all cases: KinaseProfiler
Format in all cases: biochemical
Settings in all cases: 10 μM, ATP near Km
AKT1 = biological target: T1, AKT1 (Homo sapiens, UniProt P31749)
T1 construct: purchased Millipore (KinaseProfiler service)
Summary of the method: (§1)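 Screening conditions: one concentration (10 μM), ATP near Km per kinase, duplicate runs. Output: POC, averaged.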

ALK = biological target: T2, ALK (Homo sapiens, UniProt Q9UM73)
T2 construct: purchased Millipore (KinaseProfiler service)
Summary of the method: as §1

ALK4 = biological target: T3, ALK4 (Homo sapiens, UniProt P36896)
T3 construct: purchased Millipore (KinaseProfiler service)
Summary of the method: as §1

AMPK(A1/B1/G1) = biological target: T4, AMPK(A1/B1/G1) (Homo sapiens, UniProt Q13131)
T4 construct: purchased Millipore (KinaseProfiler service)
Summary of the method: as §1

Ab12 = biological target: T5, Ab12 (Homo sapiens, UniProt P42684)
T5 construct: purchased Millipore (KinaseProfiler service)
Summary of the method: as §1

Bmx = biological target: T6, Bmx (Homo sapiens, UniProt P51813)
T6 construct: purchased Millipore (KinaseProfiler service)
Summary of the method: as §1

CAMK2d = biological target: T7, CAMK2d (Homo sapiens, UniProt Q13557)
T7 construct: purchased Millipore (KinaseProfiler service)
Summary of the method: as §1

CDK2/cyclinE = biological target: T8, CDK2/cyclinE (Homo sapiens, UniProt P24941)
T8 construct: purchased Millipore, Inc. (KinaseProfiler service)
Summary of the method: as §1

CDK5/p25 = biological target: T9, CDK5/p25 (Homo sapiens, UniProt Q00535)
T9 construct: purchased Millipore, Inc. (KinaseProfiler service)
T9 sequence (Q00535 whole entry): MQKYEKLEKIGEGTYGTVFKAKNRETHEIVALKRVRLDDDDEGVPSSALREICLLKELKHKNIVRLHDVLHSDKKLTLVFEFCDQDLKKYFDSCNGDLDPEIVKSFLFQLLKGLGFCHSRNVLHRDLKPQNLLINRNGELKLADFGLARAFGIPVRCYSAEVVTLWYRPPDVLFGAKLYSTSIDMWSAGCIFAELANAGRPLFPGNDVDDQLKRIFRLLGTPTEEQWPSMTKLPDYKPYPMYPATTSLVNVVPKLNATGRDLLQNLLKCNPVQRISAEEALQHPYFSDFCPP
T9 sequence (Q15078 99-307 partner limits assumed): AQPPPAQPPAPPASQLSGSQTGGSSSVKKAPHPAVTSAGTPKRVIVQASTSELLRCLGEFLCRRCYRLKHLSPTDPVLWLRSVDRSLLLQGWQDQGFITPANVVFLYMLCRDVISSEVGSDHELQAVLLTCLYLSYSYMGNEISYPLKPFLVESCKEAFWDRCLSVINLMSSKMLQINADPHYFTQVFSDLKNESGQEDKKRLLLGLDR
Summary of the method: as §1

CHK1 = biological target: T10, CHK1 (Homo sapiens, UniProt O14757)
T10 construct: purchased Millipore, Inc. (KinaseProfiler service)
Summary of the method: as §1

DMPK = biological target: T11, DMPK (Homo sapiens, UniProt Q09013)
T11 construct: purchased Millipore, Inc. (KinaseProfiler service)
Summary of the method: as §1

EphB2 = biological target: T12, EphB2 (Homo sapiens, UniProt P29323)
T12 construct: purchased Millipore, Inc. (KinaseProfiler service)
T12 sequence (P29323 19-1055): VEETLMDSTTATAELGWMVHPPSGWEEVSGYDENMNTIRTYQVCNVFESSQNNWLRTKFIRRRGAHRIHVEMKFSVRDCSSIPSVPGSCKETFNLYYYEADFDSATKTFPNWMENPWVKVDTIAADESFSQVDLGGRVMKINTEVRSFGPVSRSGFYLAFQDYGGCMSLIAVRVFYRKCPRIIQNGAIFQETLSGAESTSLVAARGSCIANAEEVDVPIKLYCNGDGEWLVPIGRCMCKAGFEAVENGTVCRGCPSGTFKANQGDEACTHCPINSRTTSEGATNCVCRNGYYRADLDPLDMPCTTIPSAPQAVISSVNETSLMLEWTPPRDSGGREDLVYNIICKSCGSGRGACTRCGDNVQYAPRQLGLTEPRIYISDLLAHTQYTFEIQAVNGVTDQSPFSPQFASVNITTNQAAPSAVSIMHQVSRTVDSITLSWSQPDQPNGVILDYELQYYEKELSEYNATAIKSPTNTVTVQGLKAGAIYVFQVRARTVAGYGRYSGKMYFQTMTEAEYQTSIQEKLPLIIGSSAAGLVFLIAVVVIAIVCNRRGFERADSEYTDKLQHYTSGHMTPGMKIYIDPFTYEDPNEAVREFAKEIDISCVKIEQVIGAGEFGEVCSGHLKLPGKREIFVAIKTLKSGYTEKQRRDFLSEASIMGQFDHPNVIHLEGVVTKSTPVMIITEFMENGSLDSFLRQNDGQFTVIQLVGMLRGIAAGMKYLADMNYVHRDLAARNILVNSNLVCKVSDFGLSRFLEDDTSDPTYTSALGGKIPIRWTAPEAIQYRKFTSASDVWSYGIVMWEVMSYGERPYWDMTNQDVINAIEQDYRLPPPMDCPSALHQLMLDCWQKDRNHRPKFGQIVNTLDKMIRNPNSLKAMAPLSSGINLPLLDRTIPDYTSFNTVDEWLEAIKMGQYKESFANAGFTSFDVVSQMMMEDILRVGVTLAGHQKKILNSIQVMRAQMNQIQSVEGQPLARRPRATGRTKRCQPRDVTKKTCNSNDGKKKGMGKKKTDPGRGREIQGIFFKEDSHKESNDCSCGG
Summary of the method: as §1

EphB4 = biological target: T13, EphB4 (Homo sapiens, UniProt P54760)
T13 construct: purchased Millipore, Inc. (KinaseProfiler service)
Summary of the method: as §1

ErbB4 = biological target: T14, ErbB4 (Homo sapiens, UniProt Q15303)
T14 construct: purchased Millipore, Inc. (KinaseProfiler service)
Summary of the method: as §1

FAK = biological target: T15, FAK (Homo sapiens, UniProt Q05397)
T15 construct: purchased Millipore, Inc. (KinaseProfiler service)
Summary of the method: as §1

Fer = biological target: T16, Fer (Homo sapiens, UniProt P16591)
T16 construct: purchased Millipore, Inc. (KinaseProfiler service)
Summary of the method: as §1

Fes = biological target: T17, Fes (Homo sapiens, UniProt P07332)
T17 construct: purchased Millipore, Inc. (KinaseProfiler service)
Summary of the method: as §1

Flt3 = biological target: T18, Flt3 (Homo sapiens, UniProt P36888)
T18 construct: purchased Millipore, Inc. (KinaseProfiler service)
Summary of the method: as §1

GRK6 = biological target: T19, GRK6 (Homo sapiens, UniProt P43250)
T19 construct: purchased Millipore, Inc. (KinaseProfiler service)
Summary of the method: as §1

GSK3beta = biological target: T20, GSK3beta (Homo sapiens, UniProt P49841)
T20 construct: purchased Millipore, Inc. (KinaseProfiler service)
Summary of the method: as §1

IGF-1R Activated = biological target: T21, IGF-1R Activated (Homo sapiens, UniProt P08069)
T21 construct: purchased Millipore, Inc. (KinaseProfiler service)
T21 sequence (P08069 959-1367 limits assumed): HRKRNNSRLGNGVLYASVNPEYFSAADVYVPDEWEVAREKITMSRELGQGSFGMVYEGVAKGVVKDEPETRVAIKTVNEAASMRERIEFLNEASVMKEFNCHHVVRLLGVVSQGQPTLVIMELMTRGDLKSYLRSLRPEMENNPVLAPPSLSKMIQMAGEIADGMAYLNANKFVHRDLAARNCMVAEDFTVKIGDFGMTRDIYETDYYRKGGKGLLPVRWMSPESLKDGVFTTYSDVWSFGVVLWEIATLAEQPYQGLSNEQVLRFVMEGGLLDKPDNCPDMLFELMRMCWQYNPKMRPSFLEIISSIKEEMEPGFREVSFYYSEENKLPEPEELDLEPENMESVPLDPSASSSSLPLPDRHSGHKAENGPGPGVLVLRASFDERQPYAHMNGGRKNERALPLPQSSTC
Summary of the method: as §1

IRAK1 = biological target: T22, IRAK1 (Homo sapiens, UniProt P51617)
T22 construct: purchased Millipore, Inc. (KinaseProfiler service)
Summary of the method: as §1

LKB1 = biological target: T23, LKB1 (Homo sapiens, UniProt Q15831)
T23 construct: purchased Millipore, Inc. (KinaseProfiler service)
Summary of the method: as §1

MKK6 = biological target: T24, MKK6 (Homo sapiens, UniProt P52564)
T24 construct: purchased Millipore, Inc. (KinaseProfiler service)
T24 sequence (P52564 whole entry): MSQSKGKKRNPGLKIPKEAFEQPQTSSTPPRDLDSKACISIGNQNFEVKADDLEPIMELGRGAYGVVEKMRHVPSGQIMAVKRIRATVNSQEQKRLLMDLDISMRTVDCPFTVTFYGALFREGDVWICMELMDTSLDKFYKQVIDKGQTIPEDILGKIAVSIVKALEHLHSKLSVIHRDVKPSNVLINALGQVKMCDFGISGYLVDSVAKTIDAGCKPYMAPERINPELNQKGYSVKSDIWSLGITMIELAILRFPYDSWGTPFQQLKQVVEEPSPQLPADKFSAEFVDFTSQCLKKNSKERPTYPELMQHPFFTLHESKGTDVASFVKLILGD
Summary of the method: as §1

MRCKbeta = biological target: T25, MRCKbeta (Homo sapiens, UniProt Q9Y5S2)
T25 construct: purchased Millipore, Inc. (KinaseProfiler service)
Summary of the method: as §1

MST1 = biological target: T26, MST1 (Homo sapiens, UniProt Q13043)
T26 construct: purchased Millipore, Inc. (KinaseProfiler service)
Summary of the method: as §1

MST2 = biological target: T27, MST2 (Homo sapiens, UniProt Q13188)
T27 construct: purchased Millipore, Inc. (KinaseProfiler service)
Summary of the method: as §1

NEK3 = biological target: T28, NEK3 (Homo sapiens, UniProt P51956)
T28 construct: purchased Millipore, Inc. (KinaseProfiler service)
T28 sequence (P51956 whole entry): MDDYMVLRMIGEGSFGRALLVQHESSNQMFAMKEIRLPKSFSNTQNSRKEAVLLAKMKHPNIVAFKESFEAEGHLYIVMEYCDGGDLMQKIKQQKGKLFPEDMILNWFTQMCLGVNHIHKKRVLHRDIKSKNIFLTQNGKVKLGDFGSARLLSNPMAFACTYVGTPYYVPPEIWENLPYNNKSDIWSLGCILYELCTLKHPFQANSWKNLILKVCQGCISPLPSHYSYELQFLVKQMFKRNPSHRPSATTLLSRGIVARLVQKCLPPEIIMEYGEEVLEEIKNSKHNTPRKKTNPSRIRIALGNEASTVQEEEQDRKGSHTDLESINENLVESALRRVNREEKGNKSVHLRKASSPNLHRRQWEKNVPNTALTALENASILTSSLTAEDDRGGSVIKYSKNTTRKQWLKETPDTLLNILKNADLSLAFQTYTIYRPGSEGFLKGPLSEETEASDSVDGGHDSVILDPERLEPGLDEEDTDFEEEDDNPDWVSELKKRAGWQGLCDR
Summary of the method: as §1

PKCdelta = biological target: T29, PKCdelta (Homo sapiens, UniProt Q05655)
T29 construct: purchased Millipore, Inc. (KinaseProfiler service)
Summary of the method: as §1

PKCeta = biological target: T30, PKCeta (Homo sapiens, UniProt P24723)
T30 construct: purchased Millipore, Inc. (KinaseProfiler service)
Summary of the method: as §1

PRKG1alpha = biological target: T31, PRKG1alpha (Homo sapiens, UniProt Q13976)
T31 construct: purchased Millipore, Inc. (KinaseProfiler service)
T31 sequence (Q13976 whole entry): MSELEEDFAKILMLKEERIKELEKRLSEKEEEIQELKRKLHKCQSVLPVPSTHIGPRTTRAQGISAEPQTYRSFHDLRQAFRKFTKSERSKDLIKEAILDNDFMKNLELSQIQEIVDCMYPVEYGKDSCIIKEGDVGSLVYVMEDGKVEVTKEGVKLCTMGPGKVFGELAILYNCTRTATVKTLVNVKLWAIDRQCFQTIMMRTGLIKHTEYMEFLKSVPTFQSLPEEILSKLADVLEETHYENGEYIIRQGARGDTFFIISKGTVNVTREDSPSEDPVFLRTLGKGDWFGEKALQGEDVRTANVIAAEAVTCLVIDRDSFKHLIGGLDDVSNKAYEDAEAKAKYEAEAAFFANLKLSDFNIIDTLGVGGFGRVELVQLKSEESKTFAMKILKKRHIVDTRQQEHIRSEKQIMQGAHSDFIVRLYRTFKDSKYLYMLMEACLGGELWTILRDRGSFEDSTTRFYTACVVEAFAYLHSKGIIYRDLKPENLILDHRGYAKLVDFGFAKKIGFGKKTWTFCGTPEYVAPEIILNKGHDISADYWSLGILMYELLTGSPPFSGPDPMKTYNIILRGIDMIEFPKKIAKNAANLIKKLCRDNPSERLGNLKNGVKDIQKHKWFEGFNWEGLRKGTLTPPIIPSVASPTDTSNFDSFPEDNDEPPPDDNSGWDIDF
Summary of the method: as §1

PTK6 = biological target: T32, PTK6 (Homo sapiens, UniProt Q13882)
T32 construct: purchased Millipore, Inc. (KinaseProfiler service)
Summary of the method: as §1

Pim-1 = biological target: T33, Pim-1 (Homo sapiens, UniProt P11309)
T33 construct: purchased Millipore, Inc. (KinaseProfiler service)
Summary of the method: as §1

Pim-3 = biological target: T34, Pim-3 (Homo sapiens, UniProt Q86V86)
T34 construct: purchased Millipore, Inc. (KinaseProfiler service)
Summary of the method: as §1

PrKX = biological target: T35, PrKX (Homo sapiens, UniProt P51817)
T35 construct: purchased Millipore, Inc. (KinaseProfiler service)
T35 sequence (P51817 whole entry): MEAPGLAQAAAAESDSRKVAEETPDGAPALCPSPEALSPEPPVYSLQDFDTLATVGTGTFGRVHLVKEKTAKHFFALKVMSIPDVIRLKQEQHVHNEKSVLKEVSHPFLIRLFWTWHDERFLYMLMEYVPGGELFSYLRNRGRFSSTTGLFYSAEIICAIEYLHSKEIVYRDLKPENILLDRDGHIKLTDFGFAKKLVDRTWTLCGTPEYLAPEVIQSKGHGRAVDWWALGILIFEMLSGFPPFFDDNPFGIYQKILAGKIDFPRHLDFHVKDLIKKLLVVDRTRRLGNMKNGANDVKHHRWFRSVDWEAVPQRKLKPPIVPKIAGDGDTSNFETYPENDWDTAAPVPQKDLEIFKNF
Summary of the method: as §1

Rsk2 = biological target: T36, Rsk2 (Homo sapiens, UniProt P51812)
T36 construct: purchased Millipore, Inc. (KinaseProfiler service)
T36 sequence (P51812 whole entry): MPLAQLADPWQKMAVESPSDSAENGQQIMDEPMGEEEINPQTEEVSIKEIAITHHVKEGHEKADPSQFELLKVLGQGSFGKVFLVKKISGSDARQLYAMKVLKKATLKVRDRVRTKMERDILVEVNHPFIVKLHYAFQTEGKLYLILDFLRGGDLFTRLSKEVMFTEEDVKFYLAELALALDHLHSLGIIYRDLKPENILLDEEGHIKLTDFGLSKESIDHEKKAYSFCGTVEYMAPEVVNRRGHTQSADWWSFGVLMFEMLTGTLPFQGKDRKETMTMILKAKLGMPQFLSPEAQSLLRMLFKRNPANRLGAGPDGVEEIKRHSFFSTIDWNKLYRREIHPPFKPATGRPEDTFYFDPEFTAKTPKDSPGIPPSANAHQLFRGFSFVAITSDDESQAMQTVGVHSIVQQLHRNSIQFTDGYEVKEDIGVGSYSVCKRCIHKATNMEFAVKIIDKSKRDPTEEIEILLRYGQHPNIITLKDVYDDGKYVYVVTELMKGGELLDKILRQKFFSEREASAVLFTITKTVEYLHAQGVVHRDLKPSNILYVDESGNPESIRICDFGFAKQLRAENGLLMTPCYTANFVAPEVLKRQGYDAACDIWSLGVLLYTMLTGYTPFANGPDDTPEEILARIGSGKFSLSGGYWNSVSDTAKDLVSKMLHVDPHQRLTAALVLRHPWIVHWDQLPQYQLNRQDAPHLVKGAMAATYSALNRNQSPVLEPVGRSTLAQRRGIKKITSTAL
Summary of the method: as §1

SGK2 = biological target: T37, SGK2 (Homo sapiens, UniProt Q9HBY8)
T37 construct: purchased Millipore, Inc. (KinaseProfiler service)
Summary of the method: as §1

TAK1 = biological target: T38, TAK1 (Homo sapiens, UniProt O43318)
T38 construct: purchased Millipore, Inc. (KinaseProfiler service)
T38 sequence (O43318 1-303 limits assumed): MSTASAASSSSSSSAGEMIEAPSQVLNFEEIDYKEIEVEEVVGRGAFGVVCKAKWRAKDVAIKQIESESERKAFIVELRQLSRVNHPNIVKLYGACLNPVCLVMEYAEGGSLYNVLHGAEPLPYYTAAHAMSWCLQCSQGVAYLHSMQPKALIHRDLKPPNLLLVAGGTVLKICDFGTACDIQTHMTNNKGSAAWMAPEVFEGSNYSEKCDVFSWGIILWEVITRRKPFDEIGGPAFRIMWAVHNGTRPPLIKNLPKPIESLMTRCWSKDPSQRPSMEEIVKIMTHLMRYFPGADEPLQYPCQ
T38 sequence (Q15750 437-504 partner limits assumed): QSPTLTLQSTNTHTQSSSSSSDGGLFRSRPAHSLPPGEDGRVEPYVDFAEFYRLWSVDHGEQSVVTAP
Summary of the method: as §1

TLK2 = biological target: T39, TLK2 (Homo sapiens, UniProt Q86UE8)
T39 construct: purchased Millipore, Inc. (KinaseProfiler service)
Summary of the method: as §1

Tie2 = biological target: T40, Tie2 (Homo sapiens, UniProt Q02763)
T40 construct: purchased Millipore, Inc. (KinaseProfiler service)
Summary of the method: as §1

TrkB = biological target: T41, TrkB (Homo sapiens, UniProt Q16620)
T41 construct: purchased Millipore, Inc. (KinaseProfiler service)
Summary of the method: as §1

Avg POC (AKT1): 120 POC
Avg POC (ALK): 105 POC
Avg POC (ALK4): 113 POC
Avg POC (AMPK(A1/B1/G1)): 149 POC
Avg POC (Ab12): 108 POC
Avg POC (Bmx): 129.5 POC
Avg POC (CAMK2d): 135.5 POC
Avg POC (CDK2/cyclinE): 106.5 POC
Avg POC (CDK5/p25): 106 POC
Avg POC (CHK1): 118 POC
Avg POC (DMPK): 108.5 POC
Avg POC (EphB2): 112.5 POC
Avg POC (EphB4): 132.5 POC
Avg POC (ErbB4): 118.5 POC
Avg POC (FAK): 103.5 POC
Avg POC (Fer): 99 POC
Avg POC (Fes): 110 POC
Avg POC (Flt3): 81 POC
Avg POC (GRK6): 103 POC
Avg POC (GSK3beta): 114.5 POC
Avg POC (IGF-1R Activated): 102 POC
Avg POC (IRAK1): 103 POC
Avg POC (LKB1): 90.5 POC
Avg POC (MKK6): 124.5 POC
Avg POC (MRCKbeta): 105.5 POC
Avg POC (MST1): 94.5 POC
Avg POC (MST2): 101.5 POC
Avg POC (NEK3): 120 POC
Avg POC (PKCdelta): 96 POC
Avg POC (PKCeta): 105.5 POC
Avg POC (PRKG1alpha): 113.5 POC
Avg POC (PTK6): 124 POC
Avg POC (Pim-1): 108 POC
Avg POC (Pim-3): 105.5 POC
Avg POC (PrKX): 134 POC
Avg POC (Rsk2): 136.5 POC
Avg POC (SGK2): 117.5 POC
Avg POC (TAK1): 95 POC
Avg POC (TLK2): 101 POC
Avg POC (Tie2): 160.5 POC
Avg POC (TrkB): 105 POC
SMILES: COCCCc1cc(Cl)c(Cl)cc1NC(=O)Nc1c(C)c(-c2cnn(C)c2)nn1-c1ccccc1 [Example 15, 1-(4,5-dichloro-2-(3-methoxypropyl)phenyl)-3-(1′,4-dimethyl-1-phenyl-1H,1′H-[3,4′-bipyrazol]-5-yl)urea]
